Experimental data taken from US20240024324A1, “KINASE INHIBITOR COMBINATIONS FOR CANCER TREATMENT” (Merck Patent GmbH, priority 2020, published 2024).

Columns and labels:
[1] = test system: human GBM; details: orthotopically implanted models of human GBM; cited from earlier work
[2] = test system: GSC231; assay: GSC lines: sensitivity in vitro (IC50); type: cell-based; details: GSC231 line in vitro
Description: (§1) FIG. 1: In vitro analyses in GSC lines. (A) Western blot analysis of protein expression; (B) IC50 of M2698; (C) IC50 of pimasertib; and (D) apoptotic GSC11, GSC7-2, and GSC17 cells after treatment with M2698, pimasertib, or M2698+pimasertib combination. Single agents were tested at their IC50; half the IC50 of each compound was used for the combination.
(§2) All GSC lines expressed Akt. Relatively high pAkt expression in GSC17, GSC7-2, GSC231, GSC11, GSC20, GSC6-27, and GSC8-11 lines compared with GSC272 and GSC267 (FIG. 1A).

[3] = test system: GSC20; assay: GSC lines: sensitivity in vitro (IC50); type: cell-based; details: GSC20 line
Description: as §1, §2

[4] = test system: GSC6-27; assay: GSC lines: sensitivity in vitro (IC50); type: cell-based; details: GSC6-27 line in vitro
Description: as §1, §2

[5] = test system: GSC8-11; assay: GSC lines: sensitivity in vitro (IC50); type: cell-based; details: GSC8-11 line in vitro
Description: as §1, §2

[6] = test system: GSC11; assay: GSC lines: sensitivity in vitro (IC50); type: cell-based; details: GSC11 line in vitro
Description: as §1, §2

[7] = test system: GSC7-2; assay: GSC lines: sensitivity in vitro (IC50); type: cell-based; details: GSC7-2 line in vitro
Description: as §1, §2

[8] = test system: GSC17; assay: GSC lines: sensitivity in vitro (IC50); type: cell-based; details: GSC17 line in vitro
Description: as §1, §2

[9] = test system: SCCHN PDX; assay: 38 PDX models of SCCHN, 1+1 screen; type: in vivo, mouse; details: 38 models, M2698 25 mg/kg PO QDx28, Cetuximab 30 mg/kg IP 2wklyx4
Description: 46 SCCHN PDX models were run in a 1+1 scheme (one mouse per treatment group). […] With the adjustment to the cancellation, 38 models were completed. […] After implantation, treatments began when average tumor volume reached ˜200 mm^3 for each model. Tumor volumes were measured for each model until the control tumor reached ˜1200 mm^3 at which time all animals for that model were euthanized.

[10] = test system: GSC11; assay: Induction of apoptosis in GSC lines in vitro; type: cell-based
Description: (§3) FIG. 1: In vitro analyses in GSC lines. (A) Western blot analysis of protein expression; (B) IC50 of M2698; (C) IC50 of pimasertib; and (D) apoptotic GSC11, GSC7-2, and GSC17 cells after treatment with M2698, pimasertib, or M2698+pimasertib combination. […]
(§4) Induction of apoptosis by M2698, pimasertib, and the combination was measured in three of five GSC lines that were sensitive to M2698 in vitro.

[11] = test system: GSC7-2; assay: Induction of apoptosis in GSC lines in vitro; type: cell-based
Description: as §3, §4

[12] = test system: GSC17; assay: Induction of apoptosis in GSC lines in vitro; type: cell-based
Description: as §3, §4

[13] = test system: human cholangiocarcinoma cancer PDX; assay: PDX models of cholangiocarcinoma; type: in vivo, mice; details: 20 mg/kg each agent QD PO
From the text: The objective of this experiment was to evaluate the antitumor activity of M2698 alone and in combination with Pimasertib in a panel of 13 Patient-Derived Xenograft models representing human cholangiocarcinoma cancer derived from Chinese patients in immune-deficient mice.
Vehicle: 0.5% Methocel/0.25% Tween20 in Milli-Q Water. Tumors from three untreated mice were collected as satellite samples when reached a tumor volume between 300-500 mm3.

[14] = test system: Akt; details: variety of cell-based assays; cited from earlier work
[15] = test system: Her2+/HR− Breast Cancer PDX; assay: PDX models of Her2+/HR- breast cancer; type: in vivo
[16] = in vivo; cited from earlier work
[17] = test system: cancer cell lines; details: broad panel of cancer cell lines; cited from earlier work
[18] = molecular target: p70S6K (Homo sapiens, UniProt P23443); details: variety of cell-based assays; cited from earlier work
p70S6K, sequence (P23443 whole entry): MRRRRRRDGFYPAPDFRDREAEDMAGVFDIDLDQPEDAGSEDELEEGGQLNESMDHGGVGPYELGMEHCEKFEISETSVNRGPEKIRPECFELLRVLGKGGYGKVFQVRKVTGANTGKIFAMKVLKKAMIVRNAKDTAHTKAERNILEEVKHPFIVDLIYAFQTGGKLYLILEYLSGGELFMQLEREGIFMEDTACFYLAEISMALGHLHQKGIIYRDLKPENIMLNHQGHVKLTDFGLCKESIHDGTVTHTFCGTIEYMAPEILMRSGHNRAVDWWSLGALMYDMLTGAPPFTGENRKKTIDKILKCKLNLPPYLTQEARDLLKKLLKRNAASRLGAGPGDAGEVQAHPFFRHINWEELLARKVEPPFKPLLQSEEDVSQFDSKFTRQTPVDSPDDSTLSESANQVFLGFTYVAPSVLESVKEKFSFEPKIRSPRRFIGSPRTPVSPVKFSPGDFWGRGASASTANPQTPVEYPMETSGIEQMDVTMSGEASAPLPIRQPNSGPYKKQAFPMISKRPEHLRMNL

[19] = test system: GSC231; assay: Orthotopic GSC xenograft model; type: in vivo, mice
Description: (§5) The in vivo effects of M2698 and pimasertib, alone and in combination, were assessed in the GSC models after orthotopic implantation into mice. Treatment duration and time of euthanasia post-implantation was 5-10 weeks. Endpoints were expression of PD markers pS6 and pERK, proliferation marker Ki67, apoptosis as measured by TUNEL, tumor volume and survival.

[20] = test system: GSC20; assay: Orthotopic GSC xenograft model; type: in vivo, mice
Description: as §5

[21] = test system: GSC6-27; assay: Orthotopic GSC xenograft model; type: in vivo, mice
Description: as §5

[22] = test system: GSC11; assay: Orthotopic GSC xenograft model; type: in vivo, mice
Description: as §5

[23] = test system: GSC272; assay: Orthotopic GSC xenograft model; type: in vivo, mice
Description: as §5

[24] = test system: GSC7-2; assay: Orthotopic GSC xenograft model; type: in vivo, mice
Description: as §5

[25] = test system: GSC17; assay: Orthotopic GSC xenograft model; type: in vivo, mice
Description: as §5

[26] = test system: Non-Small Lung Cancer (NSCLC) Brain Metastases PDX; assay: PDX models of NSCLC brain metastases; type: in vivo
[27] = test system: Colorectal Cancer PDX; assay: 75 PDX models of colorectal cancer; type: in vivo; details: CRC PDX; M2698 25 mg/kg po qd, Pimasertib 20 mg/kg po qd, Cetuximab 20 mg/kg ip q2w
From the text: Of the 75 models, 25 were wild type, 25 KRas mutant, and 25 BRaf mutant.

For `NC(=O)c1cccc2c(N[C@H](CN3CCC3)c3ccc(Cl)c(C(F)(F)F)c3)ncnc12` [M2698, 4-[(S)-2-Azetidin-1-yl-1-(4-chloro-3-trifluoromethyl-phenyl)-ethylamino]-quinazoline-8-carboxylic acid amide], the survival [1] is listed as “prolongs survival”, the tumor growth [1] is listed as “reduces tumor growth” and the IC50 [2] is listed as < 2 µM. The “sensitivity in vitro” value [3] was “insensitivity”, the IC50 [4] was < 2 µM and the IC50 [5] was < 2 µM. The IC50 [6] was < 2 µM, the IC50 [7] was < 2 µM and the IC50 [8] was < 2 µM. The “Models with an Overall Response (“RECIST”)” value [9] was 7/38, the “Partial response (number of models)” value [9] was 0 and the “Tumor Progression (number of models)” value [9] was 31. The “Tumor Stasis (number of models)” value [9] was 7, the “tumor control rate (TCR)” value [9] was 18% and the apoptotic percentage ([10]; GSC11, monotherapy at 2×IC50) was 62%. For the same compound, the apoptotic percentage ([10]; GSC11, monotherapy at the IC50) was 56%, the apoptotic percentage ([11]; GSC7-2, monotherapy at 2×IC50) was 17% and the apoptotic percentage ([11]; GSC7-2, monotherapy at the IC50) was 13%. The apoptotic percentage ([12]; GSC17, monotherapy at 2×IC50) was 12%, the apoptotic percentage ([12]; GSC17, monotherapy at the IC50) was 11% and the “tumor stasis, number of tumor samples” value [13] was 2/12. For the same compound, the “tumor stasis, share of tumor samples” value [13] was 17%, the “inhibition of Akt” value [14] was “highly potent” and the “tumor volume over the duration of the experiment” value [15] was “stasis of the tumor volume”. The blood-brain barrier penetration [16] was “crosses the blood-brain barrier”, the “anti-tumor activity” value [17] was “potent anti-tumor activity” and the “inhibition of p70S6K” value [18] was “highly potent”. The “pERK expression in orthotopic tumor” value ([19]; GSC231, PD marker) was “reduced pERK”, the “pS6 expression in orthotopic tumor” value ([19]; GSC231, PD marker) was “significantly reduced pS6” and the median survival ([19]; GSC231 orthotopic, vs vehicle) was “prolonged survival”. The “tumor volume / tumor growth” value ([19]; GSC231 orthotopic, vs vehicle) was “significantly inhibited tumor growth”, the “pS6 expression in orthotopic tumor” value ([20]; GSC20, PD marker) was “lack of significant response” and the “tumor volume / tumor growth” value ([20]; GSC20 orthotopic, vs vehicle) was “had not responded”. The “pERK expression in orthotopic tumor” value ([21]; GSC6-27, PD marker) was “reduced pERK”, the “pS6 expression in orthotopic tumor” value ([21]; GSC6-27, PD marker) was “significantly reduced pS6” and the “tumor volume / tumor growth” value ([21]; GSC6-27 orthotopic, vs vehicle) was “significantly inhibited tumor growth”. The “pERK expression in orthotopic tumor” value ([22]; GSC11, PD marker) was “reduced pERK”, the “pS6 expression in orthotopic tumor” value ([22]; GSC11, PD marker) was “significantly reduced pS6” and the “tumor volume / tumor growth” value ([22]; GSC11 orthotopic, vs vehicle) was “had a trend to do so”. For the same compound, the “pERK expression in orthotopic tumor” value ([23]; GSC272, PD marker) was “reduced pERK”, the “pS6 expression in orthotopic tumor” value ([23]; GSC272, PD marker) was “significantly reduced pS6” and the median survival ([23]; GSC272 orthotopic, vs vehicle) was “prolonged survival”. The “tumor volume / tumor growth” value ([23]; GSC272 orthotopic, vs vehicle) was “significantly inhibited tumor growth”, the “pERK expression in orthotopic tumor” value ([24]; GSC7-2, PD marker) was “reduced pERK” and the “pS6 expression in orthotopic tumor” value ([24]; GSC7-2, PD marker) was “significantly reduced pS6”. The “tumor volume / tumor growth” value ([24]; GSC7-2 orthotopic, vs vehicle) was “significantly inhibited tumor growth”, the “proliferation (Ki67 by immunohistochemistry)” value ([24]; GSC7-2 tumor sections, compared to vehicle) was “significantly reduced proliferation” and the “number of apoptotic cells/field” value ([24]; GSC7-2 xenografts, after 10 weeks) was 52.17±25.20 cells/field. For the same compound, the “apoptosis in xenografts vs control” value ([24]; GSC7-2 xenografts, at 7.5 weeks) was “Neither M2698, pimasertib, nor combination treatment significantly affected apoptosis”, the “pERK expression in orthotopic tumor” value ([25]; GSC17, PD marker) was “reduced pERK” and the “pS6 expression in orthotopic tumor” value ([25]; GSC17, PD marker) was “significantly reduced pS6”. For the same compound, the “tumor volume / tumor growth” value ([25]; GSC17 orthotopic, vs vehicle) was “significantly inhibited tumor growth”, the “proliferation (Ki67 by immunohistochemistry)” value ([25]; GSC17 tumor sections, compared to vehicle) was “significantly reduced proliferation” and the “tumor control rate (TCR)” value [26] was 5%. The “tumor control rate (TCR)” value [27] was 15% and the “tumor control rate (TCR), models controlled/models” value [27] was 11/74.
